Source: patent US6596867B2, “Tartrate salt of a substituted dipeptide as growth hormone secretagogue” (Pfizer Inc., priority 1997, dated 2003)
Where a name gives a salt, the structure may show the parent alone.

Legend:
[1] = solubility of the crystalline salt (stated property); format: physicochemical; settings: crystalline form
[2] = stability of the crystalline salt (stated property); format: physicochemical; settings: crystalline form

- solubility [1]: high solubility
- stability [2]: good stability
Compound: CC(C)(N)C(=O)N[C@H](COCc1ccc(F)cc1F)C(=O)N1CCC2=NN(CC(F)(F)F)C(=O)[C@]2(Cc2ccccn2)C1 [2-Amino-N-{1-(2,4-difluoro-benzyloxymethyl)-2-oxo-2-[3-oxo-3a-pyridin-2-ylmethyl-2-(2,2.2-trifluoro-ethyl)-2,3,3a,4,6,7-hexahydro-pyrazolo[4,3-c]pyridin-5-yl]-ethyl}-2-methyl-propionamide L-(+) tartrate]
